Experimental data taken from patent US20240425589A1, “CYTOTOXICITY-INDUCING THERAPEUTIC AGENT FOR USE IN TREATMENT OF CANCER” (CHUGAI SEIYAKU KABUSHIKI KAISHA, priority 2021, published 2024).

How the values were obtained:
[1] = test system: CLDN6 expression in NIH:OVCAR-3; assay: CLDN6 expression by quantitative PCR after TGF-β1; format: cell-based, human; conditions: TGF-β1 10 ng/ml, 5 days, vs untreated
Experimental: Therefore, it was speculated that TGF-β1 induced by treatment with an anticancer agent may affect CLDN6 expression. Accordingly, analyzes were performed to determine whether […] induces CLDN6 expression in the human ovarian cancer cell line (NIH:OVCAR-3, ATCC). Regarding the NIH:OVCAR-3 cells seeded on culture plates, RNAs were purified (RNeasy Mini Kit, QIAGEN) from untreated cells or from cells collected 5 days after addition of TGF-β1 (R & D Systems, 10 ng/ml), and then cDNA synthesis (Superscript IV VILO Master Mix, ThermoFisher) was performed. By using the cDNAs as templates, real-time PCR was performed using CLDN6-specific primers (Power SYBR (registered trademark) Green Master Mix, ThermoFisher) to analyze CLDN6 expression (QuantStudio 12K Flex Real-Time PCR System, ThermoFisher).
The same primers as those in the above-mentioned Example 21.1 were used as the primers for human CLDN6 and for the primers for human GAPDH used as the internal control.

[2] = test system: CLDN6 expression in NIH:OVCAR-3, COV413A, COV413B, COV362; assay: CLDN6 expression by FACS after TGF-β1; format: cell-based, human; conditions: TGF-β1 10 ng/mL, four days, vs untreated
Experimental: Next, analyses were performed to determine whether TGF-β1 induces CLDN6 expression in other ovarian cancer cell lines. In addition to NIH:OVCAR-3 cells, COV413A cells (ECACC), COV413B (ECACC), and COV362 (ECACC) were seeded on culture plates, and TGF-β1 was added at 10 ng/mL. Four days later, cells were recovered, and CLDN6 expression was analyzed by FACS analysis.
In the FACS analysis, cells were detached from the culturing flask to produce a cell suspension, these cells were stained using an anti-CLDN6 antibody (CS4135 mIgG1: the heavy-chain and light-chain amino acid sequences are shown in SEQ ID NOs: 210 and 211, respectively, and the heavy-chain and light-chain nucleotide sequences are shown in SEQ ID NOs: 212 and 213, respectively) labeled with Alexa Flour 488 (Alexa Fluor 488 antibody labeling kit, ThermoFisher Scientific), and the amount of CLDN6 expression was analyzed using a flow cytometer (FACSlyric, BD Biosciences). The CS4135 mIgG1 antibody is a chimeric antibody produced by linking the Fc region of a mouse IgG1 to the Fab of the CS4135 antibody.

## TGF-β1: TGF-β1 (R & D Systems) added to cells at 10 ng/ml
[1]
  CLDN6 expression: Increase in CLDN6 expression was observed
[2]
  CLDN6 expression: increased CLDN6 expression
